Read-outs that look alike come from different tables or passages of the source.

The conditions of the data set: amide bond, DMF.
Setting [1] is: PyBOP/HOBt/NMM, 16.0 h, 17 steps.
Setting [2] is: PyBOP/HOBt/NMM, 16.0 h, 15 steps.

The molecule `C[C@@H]1NC(=O)CNC(=O)[C@H](CC(N)=O)NC(=O)[C@H](Cc2ccc(O)cc2)NC(=O)[C@@H]2CCCN2C(=O)[C@@H]2C[C@@H](O)CN2C(=O)CNC1=O` [cyclo(-Gly-Ala-Gly-Hyp-Pro-Tyr-Asn-)] returned a ring closure, yield of all isomers under setting [1] of 6.2%.
The molecule `NC(=O)C[C@@H]1NC(=O)CNC(=O)[C@H](Cc2ccc(O)cc2)NC(=O)[C@H](CC(N)=O)NC(=O)CNC(=O)[C@H](Cc2ccc(O)cc2)NC1=O` [cyclo(-Tyr-Gly-Asn-Tyr-Gly-Asn-)] came in with a ring closure, yield of all isomers (PyBOP, 16 steps) of 14%.
Under setting [1], `C[C@@H]1NC(=O)CNC(=O)[C@@H]2C[C@@H](O)CN2C(=O)[C@@H]2CCCN2C(=O)[C@H](Cc2ccc(O)cc2)NC(=O)[C@H](CC(N)=O)NC(=O)CNC1=O` [Cyclo(Tyr-Pro-4Hyp-Gly-Ala-Gly-Asn)] yielded a ring closure, yield of all isomers of 7%.
`C[C@@H]1NC(=O)[C@H](CO)NC(=O)[C@H](C)NC(=O)[C@H](Cc2ccc(O)cc2)NC(=O)[C@H](CC(N)=O)NC(=O)CNC1=O` [cyclo(-Tyr-Ala-Ser-Ala-Gly-Asn-)]: the ring closure, yield of all isomers under setting [2] was found to be 4.3%.
`C[C@@H]1NC(=O)CNC(=O)[C@@H]2C[C@@H](O)CN2C(=O)[C@@H]2CCCN2C(=O)[C@H](Cc2ccc(O)cc2)NC(=O)[C@H](CC(N)=O)NC1=O` [Cyclo(Tyr-Pro-4Hyp-Gly-Ala-Asn)] showed a ring closure, yield of all isomers under setting [2] of 4.4%.
In turn, `C[C@@H]1NC(=O)CNC(=O)[C@H](CCC(N)=O)NC(=O)[C@H](Cc2ccc(O)cc2)NC(=O)[C@@H]2CCCN2C(=O)[C@@H]2C[C@@H](O)CN2C(=O)CNC1=O` [cyclo(-Gly-Ala-Gly-Hyp-Pro-Tyr-Gln-)] returned a ring closure, yield of all isomers under setting [1] of 6.6%.

These data come from patent EP1226160B1.
